Results from ChEMBL document CHEMBL1201862, “PubChem BioAssay data set” (2004).
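Tested at 5 concentrations; 48 h exposure; 96-well plates; endpoints linearly interpolated, else capped at highest concentration. GI50 = concentration required for 50% inhibition of growth.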 Calls of active or inactive are those of the source. Cut-off read from the data, not from the text of the source: active = GI50 up to about 1.1 µM and inactive = higher.

How the values were obtained:
Assay in all cases: NCI anticancer screen, dose series, 48 h
NCI-H522 = test system: NCI-H522
HT-29 = test system: HT-29
A498 = test system: A498
HCT-116 = test system: HCT-116
NCI-H23 = test system: NCI-H23
MDA-N = test system: MDA-N
KM12 = test system: KM12
T47D = test system: T47D
K562 = test system: K562
OVCAR-3 = test system: OVCAR-3
RPMI-8226 = test system: RPMI-8226
DU-145 = test system: DU-145
OVCAR-4 = test system: OVCAR-4
UO-31 = test system: UO-31
SK-MEL-5 = test system: SK-MEL-5
SK-OV-3 = test system: SK-OV-3
OVCAR-5 = test system: OVCAR-5
MDA-MB-435 = test system: MDA-MB-435
LOX IMVI = test system: LOX IMVI
BT-549 = test system: BT-549
OVCAR-8 = test system: OVCAR-8
SF-539 = test system: SF-539
MOLT-4 = test system: MOLT-4
HL-60 = test system: HL-60
COLO 205 = test system: COLO 205
HOP-62 = test system: HOP-62
786-0 = test system: 786-0
Malme-3M = test system: Malme-3M
M14 = test system: M14
NCI-H460 = test system: NCI-H460
RXF 393 = test system: RXF 393
MDA-MB-231 = test system: MDA-MB-231
TK-10 = test system: TK-10
SK-MEL-28 = test system: SK-MEL-28
NCI-H226 = test system: NCI-H226
HOP-92 = test system: HOP-92
SF-268 = test system: SF-268
SK-MEL-2 = test system: SK-MEL-2
CAKI-1 = test system: CAKI-1
IGROV-1 = test system: IGROV-1
PC-3 = test system: PC-3
MCF7 = test system: MCF7
A549 = test system: A549
HCT-15 = test system: HCT-15
NCI/ADR-RES = test system: NCI/ADR-RES
HCC 2998 = test system: HCC 2998
SR = test system: SR
Hs-578T = test system: Hs-578T
CCRF-CEM = test system: CCRF-CEM
SNB-75 = test system: SNB-75
UACC-62 = test system: UACC-62
SN12C = test system: SN12C
SW-620 = test system: SW-620
EKVX = test system: EKVX
SF-295 = test system: SF-295
SNB-19 = test system: SNB-19
U-251 = test system: U-251
ACHN = test system: ACHN
UACC-257 = test system: UACC-257

CC[C@@]1(O)C(=O)OCc2c1cc1n(c2=O)Cc2c-1nc1ccccc1c2/C=N\NC(=O)C[n+]1ccccc1
GI50 (NCI-H522): 0.991 µM (active)
GI50 (HT-29): 2.33 µM (inactive)
GI50 (A498): 2.78 µM (inactive)
GI50 (HCT-116): 0.783 µM (active)
GI50 (NCI-H23): 0.388 µM (active)
GI50 (MDA-N): 4.02 µM (inactive)
GI50 (KM12): 8.55 µM (inactive)
GI50 (T47D): 0.0346 µM (active)
GI50 (K562): 1.02 µM (active)
GI50 (OVCAR-3): 7.78 µM (inactive)
GI50 (RPMI-8226): 1.67 µM (inactive)
GI50 (DU-145): 0.0944 µM (active)
GI50 (OVCAR-4): 8.57 µM (inactive)
GI50 (UO-31): 0.29 µM (active)
GI50 (SK-MEL-5): 0.366 µM (active)
GI50 (SK-OV-3): 0.617 µM (active)
GI50 (OVCAR-5): 6.18 µM (inactive)
GI50 (MDA-MB-435): 3.56 µM (inactive)
GI50 (LOX IMVI): 0.218 µM (active)
GI50 (BT-549): 7.57 µM (inactive)
GI50 (OVCAR-8): 0.398 µM (active)
GI50 (SF-539): 0.0752 µM (active)
GI50 (MOLT-4): 0.0552 µM (active)
GI50 (HL-60): 0.225 µM (active)
GI50 (COLO 205): 12.1 µM (inactive)
GI50 (HOP-62): 0.164 µM (active)
GI50 (786-0): 0.231 µM (active)
GI50 (Malme-3M): 3.95 µM (inactive)
GI50 (M14): 0.457 µM (active)
GI50 (NCI-H460): 0.117 µM (active)
GI50 (RXF 393): 0.76 µM (active)
GI50 (MDA-MB-231): 64.6 µM (inactive)
GI50 (TK-10): 20.5 µM (inactive)
GI50 (SK-MEL-28): 3.29 µM (inactive)
GI50 (NCI-H226): 0.991 µM (active)
GI50 (HOP-92): 3.14 µM (inactive)
GI50 (SF-268): 0.115 µM (active)
GI50 (SK-MEL-2): 37.6 µM (inactive)
GI50 (CAKI-1): 0.151 µM (active)
GI50 (IGROV-1): 7.08 µM (inactive)
GI50 (PC-3): 4.49 µM (inactive)
GI50 (MCF7): 0.0735 µM (active)
GI50 (A549): 0.513 µM (active)
GI50 (HCT-15): 2.9 µM
GI50 (NCI/ADR-RES): 0.817 µM (active)
GI50 (HCC 2998): 8.13 µM (inactive)
GI50 (SR): 0.0411 µM (active)
GI50 (Hs-578T): > 64.1 µM (inactive)
GI50 (CCRF-CEM): 0.0357 µM (active)
GI50 (SNB-75): 0.23 µM (active)
GI50 (UACC-62): 0.0541 µM (active)
GI50 (SN12C): 0.119 µM (active)
GI50 (SW-620): 1.33 µM (inactive)
GI50 (EKVX): > 28.1 µM (inactive)
GI50 (SF-295): 0.247 µM (active)
GI50 (SNB-19): 0.267 µM (active)
GI50 (U-251): 0.261 µM (active)
GI50 (ACHN): 0.0531 µM (active)
GI50 (UACC-257): 2.82 µM (inactive)
